Test results taken from ChEMBL document CHEMBL1147662, “Biarylaniline phenethanolamines as potent and selective beta3 adrenergic receptor agonists” (J Med Chem, 2006).
pEC50, pKi: −log10 of the molar value. Each block holds one compound with its values, some of them ahead of it.

Assays:
[1] = AUC(0-infinity) in po dosed Beagle dog; type: ADME, organism-based, Canis lupus familiaris; parameters: time infinity, route oral; conditions: plasma
[2] = biological target: Beta-3 adrenergic receptor (Homo sapiens, UniProt P13945)
Description: Activity at human beta-3 adrenergic receptor expressed in CHO cells by stimulation of cAMP production

[3] = biological target: T1, Beta-1 adrenergic receptor (Homo sapiens, UniProt P08588)
Description: Activity at human beta-1 adrenergic receptor expressed in CHO cells by stimulation of cAMP production

[4] = Volume of distribution in Beagle dog; type: ADME, organism-based, Canis lupus familiaris; conditions: in vivo, read-out: Vss
Mus musculus [5] = assay: Decrease in plasma insulin level in db/db mouse at 0.3 mg/kg, po after 14 days; type: functional
Mus musculus [6] = assay: Decrease in plasma glucose level in db/db mouse at 3 mg/kg, po after 14 days; type: functional
Mus musculus [7] = assay: Decrease in plasma insulin level in db/db mouse at 3 mg/kg, po after 14 days; type: functional
Mus musculus [8] = assay: Decrease in plasma insulin level in db/db mouse at 0.03 mg/kg, po after 14 days; type: functional
[9] = biological target: T2, Beta-2 adrenergic receptor (Homo sapiens, UniProt P07550)
Description: Activity at human beta-2 adrenergic receptor expressed in CHO cells by stimulation of cAMP production

Mus musculus [10] = assay: Decrease in plasma glucose level in db/db mouse at 0.03 mg/kg, po after 14 days; type: functional
Mus musculus [11] = assay: Decrease in glycosylated hemoglobin in db/db mouse at 0.3 mg/kg, po after 14 days; type: functional; parameters: scale not given: the % may be the effect or the level left
Mus musculus [12] = assay: Decrease in glycosylated hemoglobin in db/db mouse at 3 mg/kg, po after 14 days; type: functional; parameters: scale not given: the % may be the effect or the level left
[13] = Clearance in Beagle dog; type: ADME, organism-based, Canis lupus familiaris; conditions: in vivo
[14] = Half life in po dosed Beagle dog; type: ADME, organism-based, Canis lupus familiaris; conditions: in vivo
Mus musculus [15] = assay: Decrease in plasma glucose level in db/db mouse at 0.3 mg/kg, po after 14 days; type: functional
[16] = Bioavailability in Beagle dog; type: ADME, organism-based, Canis lupus familiaris; conditions: in vivo
Mus musculus [17] = assay: Decrease in glycosylated hemoglobin in db/db mouse at 0.03 mg/kg, po after 14 days; type: functional; parameters: scale not given: the % may be the effect or the level left
[18] = biological target: T1, Beta-1 adrenergic receptor; assay: Displacement of [125I]cyanopindolol from human cloned beta-1 adrenergic receptor expressed in Sf9 cells
Mus musculus [19] = assay: Increase of thermogenic activity in CD1 mouse at 3 mg/kg; type: functional, organism-based; parameters: dose 3 mg/kg
[20] = Half life in Beagle dog at 0.2 mg/kg, iv; type: ADME, organism-based, Canis lupus familiaris; parameters: dose 0.2 mg/kg, route intravenous; conditions: in vivo
Mus musculus [21] = assay: Decrease in glycosylated hemoglobin in db/db mouse at 100 mg/kg, po after 14 days; type: functional; parameters: scale not given: the % may be the effect or the level left
Mus musculus [22] = assay: Decrease in plasma insulin level in db/db mouse at 10 mg/kg, po after 14 days; type: functional
Mus musculus [23] = assay: Increase of thermogenic activity in CD1 mouse at 30 mg/kg; type: functional, organism-based; parameters: dose 30 mg/kg
Mus musculus [24] = assay: Decrease in glycosylated hemoglobin in db/db mouse at 30 mg/kg, po after 14 days; type: functional; parameters: scale not given: the % may be the effect or the level left
[25] = Renal clearance in Wistar Han rat at 1 mg/kg, iv or 1 mg/kg, po; type: ADME, organism-based, Kidney; conditions: in vivo, read-out: CL_renal
Mus musculus [26] = assay: Decrease in plasma glucose level in db/db mouse at 30 mg/kg, po after 14 days; type: functional
[27] = Half life in iv dosed cynomolgus monkey; type: ADME, organism-based, Macaca fascicularis; conditions: in vivo
[28] = Renal clearance in Beagle dog; type: ADME, organism-based, Canis lupus familiaris, Kidney; conditions: in vivo, read-out: CL_renal
[29] = Half life in Wistar Han rat at 1 mg/kg, po; type: ADME, organism-based; parameters: dose 1 mg/kg, route oral; conditions: in vivo
[30] = Volume of distribution in Wistar Han rat at 1 mg/kg, iv or 1 mg/kg, po; type: ADME, organism-based; conditions: in vivo, read-out: Vss
Mus musculus [31] = assay: Increase of thermogenic activity in CD1 mouse at 10 mg/kg; type: functional, organism-based; parameters: dose 10 mg/kg
Mus musculus [32] = assay: Decrease in plasma glucose level in db/db mouse at 100 mg/kg, po after 14 days; type: functional
[33] = Clearance in cynomolgus monkey; type: ADME, organism-based, Macaca fascicularis; conditions: in vivo
Mus musculus [34] = assay: Decrease in plasma insulin level in db/db mouse at 30 mg/kg, po after 14 days; type: functional
[35] = Clearance in Wistar Han rat at 1 mg/kg, iv or 1 mg/kg, po; type: ADME, organism-based; conditions: in vivo
[36] = Half life in po dosed cynomolgus monkey; type: ADME, organism-based, Macaca fascicularis; conditions: in vivo
[37] = Bioavailability in Wistar Han rat at 1 mg/kg, po and 1 mg/kg, iv; type: ADME, organism-based; conditions: in vivo
Mus musculus [38] = assay: Decrease in plasma insulin level in db/db mouse at 100 mg/kg, po after 14 days; type: functional
[39] = Half life in Wistar Han rat at 1 mg/kg, iv; type: ADME, organism-based; parameters: dose 1 mg/kg, route intravenous; conditions: in vivo
[40] = biological target: Beta-2 adrenergic receptor and beta-3 adrenergic receptor (Homo sapiens, UniProt P07550+P13945); assay: Ratio of pEC50 for human beta-3 adrenergic receptor to pKi for human beta2 adrenergic receptor; type: functional
[41] = Volume of distribution in cynomolgus monkey; type: ADME, organism-based, Macaca fascicularis; conditions: in vivo, read-out: Vss
Mus musculus [42] = assay: Decrease in plasma glucose level in db/db mouse at 10 mg/kg, po after 14 days; type: functional
Mus musculus [43] = assay: Decrease in glycosylated hemoglobin in db/db mouse at 10 mg/kg, po after 14 days; type: functional; parameters: scale not given: the % may be the effect or the level left
[44] = biological target: T2, Beta-2 adrenergic receptor; assay: Displacement of [125I]cyanopindolol from human cloned beta-2 adrenergic receptor expressed in Sf9 cells
Mus musculus [45] = assay: Decrease in plasma insulin level in db/db mouse at 0.01 mg/kg, po after 14 days; type: functional
Mus musculus [46] = assay: Decrease in glycosylated hemoglobin in db/db mouse at 1 mg/kg, po after 14 days; type: functional; parameters: scale not given: the % may be the effect or the level left
Mus musculus [47] = assay: Decrease in glycosylated hemoglobin in db/db mouse at 0.01 mg/kg, po after 14 days; type: functional; parameters: scale not given: the % may be the effect or the level left
Mus musculus [48] = assay: Decrease in plasma glucose level in db/db mouse at 0.1 mg/kg, po after 14 days; type: functional
Mus musculus [49] = assay: Decrease in plasma glucose level in db/db mouse at 0.01 mg/kg, po after 14 days; type: functional
Mus musculus [50] = assay: Decrease in plasma insulin level in db/db mouse at 1 mg/kg, po after 14 days; type: functional
Mus musculus [51] = assay: Decrease in plasma glucose level in db/db mouse at 1 mg/kg, po after 14 days; type: functional
Mus musculus [52] = assay: Decrease in glycosylated hemoglobin in db/db mouse at 0.1 mg/kg, po after 14 days; type: functional; parameters: scale not given: the % may be the effect or the level left
Mus musculus [53] = assay: Decrease in plasma insulin level in db/db mouse at 0.1 mg/kg, po after 14 days; type: functional

T2 sequence (P07550 whole entry): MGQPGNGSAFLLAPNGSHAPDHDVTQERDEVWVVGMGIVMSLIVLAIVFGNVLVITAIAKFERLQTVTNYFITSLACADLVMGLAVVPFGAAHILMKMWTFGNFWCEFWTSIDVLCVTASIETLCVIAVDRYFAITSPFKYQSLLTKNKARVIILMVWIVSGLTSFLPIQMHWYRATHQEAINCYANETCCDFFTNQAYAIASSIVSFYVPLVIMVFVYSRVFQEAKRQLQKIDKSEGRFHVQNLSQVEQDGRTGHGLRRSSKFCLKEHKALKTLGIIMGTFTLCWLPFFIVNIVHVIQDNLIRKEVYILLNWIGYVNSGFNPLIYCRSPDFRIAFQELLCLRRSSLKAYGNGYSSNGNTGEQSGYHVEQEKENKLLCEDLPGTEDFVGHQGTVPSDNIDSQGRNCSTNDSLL
Sequence of Beta-3 adrenergic receptor (P13945 whole entry): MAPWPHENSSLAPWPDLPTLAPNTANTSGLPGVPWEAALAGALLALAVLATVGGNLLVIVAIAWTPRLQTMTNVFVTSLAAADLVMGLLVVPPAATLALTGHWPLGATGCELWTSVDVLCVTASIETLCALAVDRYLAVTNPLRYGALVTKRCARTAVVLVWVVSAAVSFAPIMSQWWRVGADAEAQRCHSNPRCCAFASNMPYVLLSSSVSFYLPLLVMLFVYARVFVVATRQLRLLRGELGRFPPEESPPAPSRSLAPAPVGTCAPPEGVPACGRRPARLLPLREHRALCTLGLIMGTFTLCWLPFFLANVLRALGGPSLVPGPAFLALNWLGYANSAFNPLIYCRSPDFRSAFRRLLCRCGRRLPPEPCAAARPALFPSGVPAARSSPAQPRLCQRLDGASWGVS
T1 sequence (P08588 whole entry): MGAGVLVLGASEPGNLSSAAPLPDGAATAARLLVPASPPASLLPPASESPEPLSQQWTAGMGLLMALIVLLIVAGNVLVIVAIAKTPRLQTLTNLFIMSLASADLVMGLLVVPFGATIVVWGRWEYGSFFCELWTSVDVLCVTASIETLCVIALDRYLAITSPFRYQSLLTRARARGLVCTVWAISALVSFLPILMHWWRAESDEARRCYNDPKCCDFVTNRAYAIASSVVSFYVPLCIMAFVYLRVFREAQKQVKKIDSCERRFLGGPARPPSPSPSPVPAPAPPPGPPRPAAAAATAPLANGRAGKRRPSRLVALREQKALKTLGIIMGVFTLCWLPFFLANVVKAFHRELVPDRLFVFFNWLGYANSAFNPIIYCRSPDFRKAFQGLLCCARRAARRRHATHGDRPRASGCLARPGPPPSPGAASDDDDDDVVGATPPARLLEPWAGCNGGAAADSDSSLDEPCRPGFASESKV

Structure (SMILES): COC(=O)c1cccc(-c2cccc(NCCNC[C@H](O)c3cccc(Cl)c3)c2)c1
pEC50 [2]: 6.80 | pEC50 [3]: 5.90 | pEC50 [9]: 6.30

Structure (SMILES): C[C@H](CNc1cccc(-c2ccc(C(=O)O)cc2)c1)NC[C@H](O)c1cccc(Cl)c1
pEC50 [2]: 7.50 | pEC50 [3]: 6.10 | pEC50 [9]: 5.80

Structure (SMILES): O=C(O)c1cncc(-c2cccc(NCCNC[C@H](O)c3cccc(Cl)c3)c2)c1
pEC50 [2]: 7.20 | pEC50 [3]: 5.50 | pEC50 [9]: 5.40

Structure (SMILES): O=C(O)c1cccc(-c2cccc(NCCNC[C@H](O)c3cccc(Cl)c3)c2)n1
pEC50 [2]: 7.40 | pEC50 [3]: 5.30 | pEC50 [9]: 5.00

Structure (SMILES): O=C(O)c1cccc(-c2cccc(NCCNC[C@H](O)c3cccc(Cl)c3)c2)c1 [SOLABEGRON]
pKi [18]: 6.40 | AUC(0-inf) [1]: 595 ng·h/mL | pEC50 [2]: 8.40 | Activity (Mus musculus [19]): Dose-dependent effect | half-life [20]: 3.3 h | Activity (Mus musculus [21]): 7.06% | pEC50 [3]: 5.40 | Activity (Mus musculus [22]): 6.3 ng/mL | Activity (Mus musculus [23]): Dose-dependent effect | Vd [4]: 0.34 L/kg | Activity (Mus musculus [24]): 7.6% | CL renal [25]: 0.16 mL/min/kg | plasma glucose (Mus musculus [26]): 207 mg/dL | pEC50 [9]: 5.90 | half-life [27]: 4.5 h | CL renal [28]: 0.014 mL/min/kg | half-life [29]: 3 h | Vd [30]: 1.3 L/kg | Activity (Mus musculus [31]): Dose-dependent effect | plasma glucose (Mus musculus [32]): 185 mg/dL | clearance [33]: 5.5 mL/min/kg | Activity (Mus musculus [34]): 4.4 ng/mL | clearance [35]: 18.1 mL/min/kg | half-life [36]: 5.2 h | bioavailability [37]: 30% | Activity (Mus musculus [38]): 0.9 ng/mL | half-life [39]: 2.1 h | Ratio [40]: 398 | clearance [13]: 2.4 mL/min/kg | Vd [41]: 0.556 L/kg | plasma glucose (Mus musculus [42]): 384 mg/dL | Activity (Mus musculus [43]): 7.3% | pKi [44]: 5.80 | half-life [14]: 5 h | bioavailability [16]: 43%

Structure (SMILES): C[C@H](CNc1cccc(-c2ncccc2C(=O)O)c1)NC[C@H](O)c1cccc(Cl)c1
pEC50 [2]: 7.50 | pEC50 [3]: 6.10 | pEC50 [9]: 5.80

Structure (SMILES): Cc1ccc(C(=O)O)cc1-c1cccc(NCCNC[C@H](O)c2cccc(Cl)c2)c1
AUC(0-inf) [1]: 173 ng·h/mL | pEC50 [2]: 8.80 | pEC50 [3]: 6.10 | Vd [4]: 1.37 L/kg | pEC50 [9]: 6.20 | clearance [13]: 7.1 mL/min/kg | half-life [14]: 2.4 h | bioavailability [16]: 37%

These reach a higher pEC50 [2]. Values come first.

AUC(0-inf) [1]: 310 ng·h/mL | pEC50 [2]: 9.60 | pEC50 [3]: 6.20 | Vd [4]: 0.37 L/kg | pEC50 [9]: 6.00 | clearance [13]: 11.3 mL/min/kg | half-life [14]: 2.4 h | bioavailability [16]: 40%
Structure (SMILES): C[C@H](CNc1cccc(-c2ccccc2C(=O)O)c1)NC[C@H](O)c1cccc(Cl)c1
Activity (Mus musculus [5]): 6.7 ng/mL | plasma glucose (Mus musculus [6]): 222 mg/dL | Activity (Mus musculus [7]): 3 ng/mL | Activity (Mus musculus [8]): 13.7 ng/mL | plasma glucose (Mus musculus [10]): 417 mg/dL | Activity (Mus musculus [11]): 5.7% | Activity (Mus musculus [12]): 5.4% | plasma glucose (Mus musculus [15]): 238 mg/dL | Activity (Mus musculus [17]): 7.2%

pEC50 [2]: 9.70 | pEC50 [3]: 5.60 | Vd [4]: 0.99 L/kg | pEC50 [9]: < 5.00 | clearance [13]: 9.3 mL/min/kg
Structure (SMILES): C[C@H](CNc1cccc(-c2ccc(C(=O)O)cc2C(=O)O)c1)NC[C@H](O)c1cccc(Cl)c1

AUC(0-inf) [1]: 135 ng·h/mL | pEC50 [2]: 10.00 | pEC50 [3]: 8.20 | Vd [4]: 0.45 L/kg | pEC50 [9]: 7.30 | clearance [13]: 7.3 mL/min/kg | half-life [14]: 2.5 h | bioavailability [16]: 28%
Structure (SMILES): C[C@H](CNc1cccc(-c2cccc(C(=O)O)c2)c1)NC[C@H](O)c1cccc(Cl)c1

AUC(0-inf) [1]: 161 ng·h/mL | pEC50 [2]: 10.00 | pEC50 [3]: 5.00 | Vd [4]: 0.33 L/kg | pEC50 [9]: < 5.00 | clearance [13]: 5.64 mL/min/kg | half-life [14]: 1.7 h | bioavailability [16]: 27%
Structure (SMILES): O=C(O)c1ccncc1-c1cccc(NCCNC[C@H](O)c2cccc(Cl)c2)c1
Activity (Mus musculus [45]): 11.4 ng/mL | Activity (Mus musculus [46]): 4.8% | Activity (Mus musculus [47]): 5.6% | plasma glucose (Mus musculus [48]): 181 mg/dL | plasma glucose (Mus musculus [49]): 351 mg/dL | Activity (Mus musculus [50]): 1.4 ng/mL | plasma glucose (Mus musculus [51]): 180 mg/dL | Activity (Mus musculus [52]): 5% | Activity (Mus musculus [53]): 2.8 ng/mL
